Measurements: patent US6599893B2, “Cephalosporin antibiotics and prodrugs thereof” (Essential Therapeutics, Inc., priority 2000, dated 2003)
Values after ≈ are worked out from the molar mass of the structure shown. Like-named read-outs stand apart in the source and are kept apart here.

Assays:
[1] = test system: Staphylococcus aureus Smith (MSSA); assay: Broth microdilution MIC, S. aureus Smith; format: cell-based; conditions: for MIC: read-out: MIC S. a. Smith
Procedure: (§1) Compounds were evaluated for antimicrobial activity against a panel of bacterial strains using a broth microdilution assay performed as recommended by the NCCLS (NCCLS (National Committee for Clinical Laboratory Standards). 1993. Methods for dilution antimicrobial susceptibility tests for bacteria that grow aerobically. NCCLS Document M7-A3, 1993. In: NCCLS Antimicrobial Susceptibility Testing, 3rd Ed.)
(§2) The minimum inhibitory concentration (MIC) is defined as the lowest concentration of a compound that prevents the growth of the bacteria.

[2] = test system: Staphylococcus aureus ATCC 29213 (MSSA); assay: Broth microdilution MIC, S. aureus ATCC 29213; format: cell-based; conditions: for MIC: read-out: MIC S. a. 29213
Procedure: as §1, §2

[3] = test system: Staphylococcus aureus COL (MRSA, non-β-lactamase producing); assay: Broth microdilution MIC, S. aureus COL; format: cell-based; conditions: for MIC: read-out: MIC S. a. COL
Procedure: as §1, §2

[4] = test system: Staphylococcus aureus 76 (MRSA, β-lactamase producing); assay: Broth microdilution MIC, S. aureus 76; format: cell-based; conditions: for MIC: read-out: MIC S. a. 76
Procedure: as §1, §2

[5] = test system: Enterococcus faecalis ATCC 29212; assay: Broth microdilution MIC, E. faecalis ATCC 29212; format: cell-based
Procedure: as §1, §2

[6] = test system: Enterococcus faecium ATCC 35667; assay: Broth microdilution MIC, E. faecium ATCC 35667; format: cell-based
Procedure: as §1, §2

S. aureus strain Smith = assay: Experimental infection of mice, ED50; format: in vivo, Swiss-Webster mice; conditions: for ED50: Staphylococcus aureus, read-out: ED50, mg/kg (95% C.I.)
Procedure: Staphylococcus aureus strain Smith (ATCC 13709, penicillin-susceptible) or strain 76 (methicillin-resistant) was cultured overnight at 37° C. in brain-heart infusion broth (BHIB). The following morning, a portion of the culture was transferred to fresh BHIB and incubated for an additional 4-5 hours at 37° C. The cells were harvested by centrifugation, washed twice with PBS, and adjusted to the desired inoculum amount. The cell suspension was mixed with an equal volume of sterile 14% hog-gastric mucin (Comber K. R.; Osborne C. D.; Sutherland R.: Comparative effects of amoxicillin and ampicillin in the treatment of experimental mouse infections. Antimicrobial Agents and Chemotherapy 7(2):179-185, 1975). The inoculum was kept in an ice bath until used (preferably in less than one hour).
Male Swiss-Webster mice were challenged intraperitoneally with 0.5 mL of a bacterial suspension of S. aureus strain Smith (LD50). Test compounds were administered subcutaneously in 0.1 mL volumes immediately after inoculation and 2 hours later. […] The total dose associated with 50% survival (ED50) was determined using the probit method (Pasiello, A. P., J. M. Essigmann, and G. N. Wogan.: Rapid and accurate determination of median lethal dose (LD50) and its error with a small computer. J Toxicol. Environ. Health. 3:797-809, 1977).

[7] = Human serum binding by ultrafiltration; format: in vitro ADME
Procedure: Binding of several representative compounds of this invention in pooled human serum was determined using ultrafiltration. Compounds were incubated in serum for 10 minutes at 37° C. in a shaking water bath. Serum ultrafiltrate was accomplished by centrifugation (Amicon Centrifree) for 20 minutes at 25° C. Compound content in the ultrafiltrate was quantified by HPLC. An ultrafilrate obtained by following the same procedure with no added compound was used as a standard.

[8] = Human serum binding estimated from serum effect on MIC (HSB*); format: in vitro ADME; conditions: MIC against S. aureus ATCC 29213 in growth medium vs 1:1 growth medium and human serum
Excerpt: An estimate of human serum binding (HSB*) was obtained for some compounds using the MIC values against S. aureus ATCC 29213 determined in growth medium (GM) and in a 1:1 mixture of growth medium and human serum (GM+HS):
HSB*=(MICGM+HS−MICGM)/MICGM 100%

[9] = Staphylococcus aureus Smith (MSSA)
[10] = Staphylococcus aureus ATCC 29213 (MSSA)
[11] = Staphylococcus aureus COL (MRSA, non-β-lactamase producing)
[12] = Staphylococcus aureus 76 (MRSA, β-lactamase producing)
[13] = Enterococcus faecalis ATCC 29212
[14] = Enterococcus faecium ATCC 35667
[15] = 50% efficacious dose, S. aureus Smith, mice challenged intraperitoneally, compound subcutaneously at 0 and 2 h, total dose, 72 h survival
[16] = ATCC29212, Enterococcus faecalis ATCC 29212, read-out: MIC E. f. 29212
[17] = ATCC35667, Enterococcus faecium ATCC 35667, read-out: MIC E. f. 35667
[18] = pooled human serum, ultrafiltration, 10 minutes at 37° C.

SMILES	MIC S. a. Smith [1, 9] [µg/mL]	MIC S. a. 29213 [2, 10] [µg/mL]	MIC S. a. COL [3, 11] [µg/mL]	MIC S. a. 76 [4, 12] [µg/mL]	MIC E. f. 29212 [5, 13] [µg/mL]	MIC E. f. 35667 [6, 14] [µg/mL]	MIC [1, 9] [µg/mL]	MIC [2, 10] [µg/mL]	MIC [3, 11] [µg/mL]	MIC [4, 12] [µg/mL]	MIC [5, 16] [µg/mL]	MIC [6, 17] [µg/mL]	ED50 (S. aureus strain Smith; [15]) [mg/kg]	further results
Nc1nc(/C(=N/O)C(=O)N[C@@H]2C(=O)N3C(C(=O)O)=C(Sc4ccncc4CSCCNC=O)CS[C@H]23)c(Cl)s1 [Compound 27]	0.25 (≈ 0.397 µM)	0.25 (≈ 0.397 µM)	2 (≈ 3.17 µM)	4 (≈ 6.35 µM)	0.25 (≈ 0.397 µM)	1 (≈ 1.59 µM)								ED50, mg/kg (95% C.I.) (S. aureus strain Smith; [15]): 2.27 (1.0-5.5) mg/kg; HSB, human serum binding [7]: 94%
Nc1nc(C(=NO)C(=O)N[C@@H]2C(=O)N3C(C(=O)O)=C(Sc4cnns4)CSC23)c(Cl)s1 (stereo partly drawn) [Compound 43, (7R)-7-[2-(2-Amino-5-chlorothiazol-4-yl)-2-hydroxyiminoacetylamino]-8-oxo-3-([1,2,3]thiadiazol-5-ylsulfanyl)-5-thia-1-aza-bicyclo[4.2.0]oct-2-ene-2-carboxylic acid]							0.06 (≈ 0.115 µM)	< 0.06	0.5 (≈ 0.962 µM)	1 (≈ 1.92 µM)	0.125 (≈ 0.24 µM)	0.5 (≈ 0.962 µM)		HSB, human serum binding [7, 18]: 96% (−)
Nc1nnc(SCc2cnccc2SC2=C(C(=O)O)N3C(=O)[C@@H](NC(=O)/C(=N\O)c4nc(N)sc4Cl)[C@H]3SC2)s1 [Compound 26]	0.06 (≈ 0.0912 µM)	0.25 (≈ 0.38 µM)	1 (≈ 1.52 µM)	2 (≈ 3.04 µM)	0.25 (≈ 0.38 µM)	0.5 (≈ 0.76 µM)								ED50, mg/kg (95% C.I.) (S. aureus strain Smith; [15]): 0.38 (01-0.7) mg/kg; HSB, human serum binding [7, 18]: >99%
Nc1nc(C(=NO)C(=O)N[C@@H]2C(=O)N3C(C(=O)O)=C(Sc4cnns4)CSC23)ns1 (stereo partly drawn) [Compound 39, (7R)-7-[2-(5-Amino-[1,2,4]thiadiazol-3-yl)-2-hydroxyimino-acetylamino]-8-oxo-3-([1,2,3]thiadiazol-5-ylsulfanyl)-5-thia-1-aza-bicyclo[4.2.0]oct-2-ene-2-carboxylic acid]							0.125 (≈ 0.257 µM)	0.125 (≈ 0.257 µM)	8 (≈ 16.4 µM)	8 (≈ 16.4 µM)	1 (≈ 2.06 µM)	2 (≈ 4.11 µM)		HSB*, human serum binding calculated using serum effect on MIC [8]: — (94%)
Nc1nc(/C(=N/O)C(=O)N[C@@H]2C(=O)N3C(C(=O)O)=C(Sc4cccc5nncn45)CS[C@H]23)c(Cl)s1 [Compound 35]	0.25 (≈ 0.452 µM)	0.5 (≈ 0.904 µM)	4 (≈ 7.23 µM)	4 (≈ 7.23 µM)	0.25 (≈ 0.452 µM)	4 (≈ 7.23 µM)								HSB*, human serum binding calculated using serum effect on MIC [8]: — (88%)
Nc1nc(/C(=N/O)C(=O)N[C@@H]2C(=O)N3C(C(=O)O)=C(Sc4ccncc4CSc4cccnc4N)CS[C@H]23)c(Cl)s1 [Compound 29]	0.25 (≈ 0.384 µM)	0.125 (≈ 0.192 µM)	1 (≈ 1.54 µM)	2 (≈ 3.07 µM)	0.125 (≈ 0.192 µM)	0.5 (≈ 0.768 µM)								ED50, mg/kg (95% C.I.) (S. aureus strain Smith; [15]): >5 mg/kg
Nc1nc(/C(=N/O)C(=O)N[C@@H]2C(=O)N3C(C(=O)O)=C(Sc4ccncc4)CS[C@H]23)c(Cl)s1 [Compound 21]							0.25 (≈ 0.487 µM)	0.25 (≈ 0.487 µM)	2 (≈ 3.9 µM)	2 (≈ 3.9 µM)	0.5 (≈ 0.975 µM)	2 (≈ 3.9 µM)	3.6	HSB, human serum binding [7, 18]: 98%
Nc1nc(/C(=N/O)C(=O)N[C@@H]2C(=O)N3C(C(=O)O)=C(Sc4ccncc4CSc4ccncc4)CS[C@H]23)c(Cl)s1 [Compound 25]	0.25 (≈ 0.393 µM)	0.25 (≈ 0.393 µM)	1 (≈ 1.57 µM)	2 (≈ 3.14 µM)	0.125 (≈ 0.196 µM)	0.25 (≈ 0.393 µM)								ED50, mg/kg (95% C.I.) (S. aureus strain Smith; [15]): >5 mg/kg; HSB, human serum binding [7]: >99%
CCC(CC)O/N=C(\C(=O)N[C@@H]1C(=O)N2C(C(=O)O)=C(Sc3ccnn3-c3ccccc3)CS[C@H]12)c1csc(N)n1 [Compound 17]								0.5 (≈ 0.815 µM)	2 (≈ 3.26 µM)	4 (≈ 6.52 µM)	2 (≈ 3.26 µM)	4 (≈ 6.52 µM)	> 10	
Nc1nc(/C(=N/O)C(=O)N[C@@H]2C(=O)N3C(C(=O)O)=C(Sc4ccncc4CO)CS[C@H]23)c(Cl)s1 [Compound 28]							0.125 (≈ 0.23 µM)	0.5 (≈ 0.921 µM)	2 (≈ 3.68 µM)	2 (≈ 3.68 µM)	0.25 (≈ 0.46 µM)	1 (≈ 1.84 µM)		HSB, human serum binding [7, 18]: >99%
C[C@@H](O)[C@H]1C(=O)N2C(C(=O)O)=C(SCCN=CN)C[C@H]12 [Imipenem, reference compound]							0.25 (≈ 0.835 µM)	< 0.02	16 (≈ 53.4 µM)	32 (≈ 107 µM)	1 (≈ 3.34 µM)	4 (≈ 13.4 µM)	0.15	
Nc1nc(/C(=N/OC2CCCC2)C(=O)N[C@@H]2C(=O)N3C(C(=O)O)=C(Sc4ccnn4-c4ccccc4)CS[C@H]23)cs1 [Compound 13]							0.5 (≈ 0.817 µM)	0.5 (≈ 0.817 µM)	2 (≈ 3.27 µM)	4 (≈ 6.54 µM)	2 (≈ 3.27 µM)	4 (≈ 6.54 µM)	> 10	
Cc1nnsc1SC1=C(C(=O)O)N2C(=O)[C@@H](NC(=O)C(=NO)c3nc(N)sc3Cl)C2SC1 (stereo partly drawn) [Compound 34, (7R)-7-[2-(2-Amino-5-chlorothiazol-4-yl)-2-hydroxyiminoacetylamino]-3-(4-methyl-[1,2,3]thiadiazol-5-ylsulfanyl)-8-oxo-5-thia-1-aza-bicyclo[4.2.0]oct-2-ene-2-carboxylic acid]							0.125 (≈ 0.234 µM)	0.125 (≈ 0.234 µM)	2 (≈ 3.75 µM)	2 (≈ 3.75 µM)	0.25 (≈ 0.468 µM)	2 (≈ 3.75 µM)		HSB*, human serum binding calculated using serum effect on MIC [8]: — (98%)
CN[C@H](CC(C)C)C(=O)N[C@H]1C(=O)N[C@@H](CC(N)=O)C(=O)N[C@H]2C(=O)N[C@H]3C(=O)N[C@H](C(=O)N[C@H](C(=O)O)c4cc(O)cc(O)c4-c4cc3ccc4O)[C@H](O)c3ccc(c(Cl)c3)Oc3cc2cc(c3O[C@@H]2O[C@H](CO)[C@@H](O)[C@H](O)[C@H]2O[C@H]2C[C@](C)(N)[C@H](O)[C@H](C)O2)Oc2ccc(cc2Cl)[C@H]1O [Vancomycin, reference compound]														MIC ([1]; Staphylococcus aureus, MSSA): 0.5 µg/mL (≈ 0.345 µM); MIC ([2]; Staphylococcus aureus): 0.5 µg/mL (≈ 0.345 µM); MIC ([3]; Staphylococcus aureus, MRSA): 1 µg/mL (≈ 0.69 µM); MIC ([4]; Staphylococcus aureus, MRSA): 0.5 µg/mL (≈ 0.345 µM); MIC ([5]; Enterococcus faecalis, ATCC29212, read-out: MIC E. f. 29212): 1 µg/mL (≈ 0.69 µM); MIC ([6]; Enterococcus faecium, ATCC35667, read-out: MIC E. f. 35667): 0.25 µg/mL (≈ 0.173 µM); ED50 (S. aureus strain Smith): 2.1 mg/kg
Nc1nc(/C(=N/OCC2CC2)C(=O)N[C@@H]2C(=O)N3C(C(=O)O)=C(Sc4ccnn4-c4ccccc4)CS[C@H]23)cs1 [Compound 19]							0.5 (≈ 0.837 µM)	0.5 (≈ 0.837 µM)	4 (≈ 6.69 µM)	8 (≈ 13.4 µM)	16 (≈ 26.8 µM)	16 (≈ 26.8 µM)	> 10	
